Activity calls are given as the source filed them. No cut-off for these calls is given here.
Key:
[1] = target: T1, Melanin-concentrating hormone receptor 1 (Homo sapiens, UniProt Q99705); test: Antagonist activity at human MCHR1 expressed in Jurkat cells co-expressing apoaequorin assessed as inhibition of MCH-induced calcium mobilization by aequorin bioluminescence assay; assay type: functional, cell-based
[2] = target: T1, Melanin-concentrating hormone receptor 1; test: Displacement of [125I]-MCH from MCHR1 after 2 hrs by beta scintillation counting
Rattus norvegicus [3] = test: Clearance in rat at 0.5 mg/kg, iv; assay type: ADME, organism-based; parameters: dose 0.5 mg/kg, route intravenous; settings: in vivo
[4] = Clearance in Beagle dog at 0.5 mg/kg, iv; assay type: ADME, organism-based, Canis lupus familiaris; parameters: dose 0.5 mg/kg, route intravenous; settings: in vivo
[5] = Clearance in rhesus monkey at 0.5 mg/kg, iv; assay type: ADME, organism-based, Macaca mulatta; parameters: dose 0.5 mg/kg, route intravenous; settings: in vivo
[6] = Volume of distribution at steady state in rat at 0.5 mg/kg, iv; assay type: ADME, organism-based; parameters: dose 0.5 mg/kg, route intravenous; settings: in vivo, read-out: Vdss
[7] = Volume of distribution at steady state in Beagle dog at 0.5 mg/kg, iv; assay type: ADME, organism-based, Canis lupus familiaris; parameters: dose 0.5 mg/kg, route intravenous; settings: in vivo, read-out: Vdss
[8] = Volume of distribution at steady state in rhesus monkey at 0.5 mg/kg, iv; assay type: ADME, organism-based, Macaca mulatta; parameters: dose 0.5 mg/kg, route intravenous; settings: in vivo, read-out: Vdss
[9] = Mean residence time in rat at 3 mg/kg, po; assay type: ADME, organism-based; parameters: dose 3 mg/kg, route oral; settings: in vivo
[10] = Mean residence time in Beagle dog at 3 mg/kg, po; assay type: ADME, organism-based, Canis lupus familiaris; parameters: dose 3 mg/kg, route oral; settings: in vivo
[11] = Mean residence time in rhesus monkey at 3 mg/kg, po; assay type: ADME, organism-based, Macaca mulatta; parameters: dose 3 mg/kg, route oral; settings: in vivo
Rattus norvegicus [12] = test: AUC in rat at 3 mg/kg, po; assay type: ADME, organism-based, Plasma; parameters: dose 3 mg/kg, route oral; settings: in vivo
[13] = AUC in Beagle dog at 3 mg/kg, po; assay type: ADME, organism-based, Canis lupus familiaris; parameters: dose 3 mg/kg, route oral; settings: plasma
[14] = AUC in rhesus monkey at 3 mg/kg, po; assay type: ADME, organism-based, Macaca mulatta; parameters: dose 3 mg/kg, route oral; settings: plasma
Rattus norvegicus [15] = test: Oral bioavailability in rat at 3 mg/kg; assay type: ADME, organism-based; settings: in vivo
[16] = Oral bioavailability in Beagle dog at 3 mg/kg; assay type: ADME, organism-based, Canis lupus familiaris; settings: in vivo
[17] = Oral bioavailability in rhesus monkey at 3 mg/kg; assay type: ADME, organism-based, Macaca mulatta; settings: in vivo
[18] = Clearance in rat hepatocytes assessed per 10^6 cells; assay type: ADME, cell-based, Liver, Hepatocyte
[19] = Clearance in Beagle dog hepatocytes assessed per 10^6 cells; assay type: ADME, cell-based, Canis lupus familiaris, Liver, Hepatocyte
[20] = Clearance in rhesus monkey hepatocytes assessed per 10^6 cells; assay type: ADME, cell-based, Macaca mulatta, Liver, Hepatocyte
[21] = Clearance in human hepatocytes assessed per 10^6 cells; assay type: ADME, cell-based, Liver, Hepatocyte
[22] = target: Melanin-concentrating hormone receptor 1 (Rattus norvegicus, UniProt P97639); test: Antagonist activity at rat MCHR1 expressed in HEK293 cells by aequorin bioluminescence assay; assay type: functional, cell-based
Melanin-concentrating hormone receptor 1 (Rattus norvegicus, UniProt P97639), sequence (P97639 whole entry): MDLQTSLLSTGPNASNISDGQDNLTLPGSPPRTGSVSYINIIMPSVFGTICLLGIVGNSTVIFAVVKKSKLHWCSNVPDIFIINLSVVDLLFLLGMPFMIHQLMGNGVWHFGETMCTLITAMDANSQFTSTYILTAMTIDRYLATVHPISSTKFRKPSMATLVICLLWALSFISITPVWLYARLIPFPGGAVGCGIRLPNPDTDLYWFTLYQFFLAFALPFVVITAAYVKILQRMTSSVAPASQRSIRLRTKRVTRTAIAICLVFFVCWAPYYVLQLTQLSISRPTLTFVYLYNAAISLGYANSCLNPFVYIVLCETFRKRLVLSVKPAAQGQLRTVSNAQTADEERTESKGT

Rattus norvegicus [23] = test: Antiobesity activity in ICV cannulated rat model assessed as reduction in MCH-induced food intake at 0.2 mg/kg, po administered 3 hrs before MCH challenge measured after 4 hrs post MCH challenge; assay type: functional; parameters: scale not given: the % may be the effect or the level left
Rattus norvegicus [24] = test: Antiobesity activity in ICV cannulated rat model assessed as reduction in MCH-induced food intake at 1 mg/kg, po administered 3 hrs before MCH challenge measured after 4 hrs post MCH challenge; assay type: functional, organism-based; parameters: dose 1 mg/kg
Rattus norvegicus [25] = test: Antiobesity activity in ICV cannulated rat model assessed as reduction in MCH-induced food intake at 5 mg/kg, po administered 3 hrs before MCH challenge measured after 4 hrs post MCH challenge; assay type: functional, organism-based; parameters: dose 5 mg/kg
Rattus norvegicus [26] = test: Toxicity in ICV cannulated rat model at 0.2 to 5 mg/kg, po administered 3 hrs before MCH challenge measured after 4 hrs post MCH challenge; assay type: organism-based; parameters: dose 0.2-5 mg/kg, route oral; settings: in vivo
[27] = target: Melanin-concentrating hormone receptor 2 (Homo sapiens) (UniProt Q969V1); test: Binding affinity to human MCHR2
Melanin-concentrating hormone receptor 2 (Homo sapiens), sequence (Q969V1 whole entry): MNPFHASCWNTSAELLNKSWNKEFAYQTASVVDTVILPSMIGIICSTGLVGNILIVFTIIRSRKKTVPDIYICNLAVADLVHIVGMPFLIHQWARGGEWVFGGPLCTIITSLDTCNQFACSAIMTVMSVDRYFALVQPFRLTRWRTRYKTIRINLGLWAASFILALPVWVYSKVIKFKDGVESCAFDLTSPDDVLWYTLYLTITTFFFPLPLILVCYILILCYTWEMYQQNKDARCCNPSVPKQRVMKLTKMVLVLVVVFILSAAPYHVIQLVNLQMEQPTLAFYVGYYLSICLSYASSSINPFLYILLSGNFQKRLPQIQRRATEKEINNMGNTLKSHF

[28] = target: Melanin-concentrating hormone receptor 1 (Macaca fascicularis, UniProt B6F061); test: Antagonist activity at cynomolgus monkey MCHR1; assay type: functional
Melanin-concentrating hormone receptor 1 (Macaca fascicularis, UniProt B6F061), sequence (B6F061 whole entry): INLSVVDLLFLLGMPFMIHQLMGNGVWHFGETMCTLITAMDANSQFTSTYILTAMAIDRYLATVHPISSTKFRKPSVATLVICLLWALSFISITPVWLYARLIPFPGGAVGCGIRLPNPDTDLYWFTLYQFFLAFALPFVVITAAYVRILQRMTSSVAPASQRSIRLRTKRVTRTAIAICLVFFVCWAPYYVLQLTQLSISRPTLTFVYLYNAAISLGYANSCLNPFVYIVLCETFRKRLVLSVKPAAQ

Cynomolgus monkey [29] = test: Antiobesity activity in cynomolgus monkey assessed as reduction of food intake at 10 mg/kg, po measured up to 8 days; assay type: functional, organism-based; parameters: dose 10 mg/kg; settings: Macaca fascicularis
Rattus norvegicus [30] = test: Toxicity in ICV cannulated rat model assessed as behavioural toxicity at 0.2 to 5 mg/kg, po administered 3 hrs before MCH challenge measured after 4 hrs post MCH challenge; assay type: organism-based; parameters: dose 0.2-5 mg/kg, route oral; settings: in vivo
Cynomolgus monkey [31] = test: Toxicity in cynomolgus monkey assessed as signs of sedation at 10 mg/kg, po; assay type: organism-based, Macaca fascicularis; parameters: dose 10 mg/kg, route oral; settings: in vivo
Cynomolgus monkey [32] = test: Toxicity in cynomolgus monkey at 10 mg/kg, po; assay type: organism-based, Macaca fascicularis; parameters: dose 10 mg/kg, route oral; settings: in vivo

T1 sequence (Q99705 whole entry): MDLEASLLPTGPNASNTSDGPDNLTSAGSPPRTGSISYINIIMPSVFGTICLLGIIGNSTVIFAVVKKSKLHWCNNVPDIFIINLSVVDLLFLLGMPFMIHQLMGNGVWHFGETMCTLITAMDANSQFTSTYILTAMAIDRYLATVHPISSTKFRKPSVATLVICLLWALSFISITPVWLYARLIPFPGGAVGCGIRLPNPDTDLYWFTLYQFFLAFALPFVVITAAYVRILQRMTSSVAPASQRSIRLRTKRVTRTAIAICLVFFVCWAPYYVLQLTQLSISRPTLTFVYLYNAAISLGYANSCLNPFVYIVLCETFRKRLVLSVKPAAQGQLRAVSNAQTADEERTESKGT

C[C@H]1c2c([nH]c3ccc(C(F)(F)F)cc23)C[C@H]2CCN(CCN3CCCCC3)C[C@@H]21 showed an IC50 [1] of 100 nM and an IC50 [2] of 40 nM.

With CC1c2c([nH]c3cccc(Cl)c23)CC2CCN(C)CC21 (racemic) the IC50 [1] was 700 nM.

For CC1c2c([nH]c3ccc(Cl)cc23)CC2CCN(C)CC21 (racemic), the IC50 [1] was 100 nM.

In the case of Cc1ccc2[nH]c3c(c2c1)C(C)C1CN(C)CCC1C3 (racemic), the IC50 [1] is reported as 200 nM.

Work on C[C@H]1c2c([nH]c3ccc(C(F)(F)F)cc23)C[C@H]2CCN(CCN3CCOCC3=O)C[C@@H]21 yielded an IC50 [1] of 7 nM and an IC50 [2] of 7 nM.

In the case of CC1c2c([nH]c3ccc(C(F)(F)F)cc23)CC2CCN(C(=O)C3CCOC3)CC21 (racemic), the IC50 [1] is reported as > 20000 nM.

Molecule CC1c2c([nH]c3cc(Cl)c(Cl)cc23)CC2CCN(C)CC21 (racemic) has an IC50 [1] of 50 nM.

C[C@H]1c2c([nH]c3ccc(C(F)(F)F)cc23)C[C@H]2CCN(CCN3CCOCC3)C[C@@H]21 showed an IC50 [1] of 20 nM and an IC50 [2] of 3 nM.

With C[C@H]1c2c([nH]c3ccc(C(F)(F)F)cc23)C[C@H]2CCN(CCCC3CCOCC3)C[C@@H]21 the IC50 [1] was 6 nM, the IC50 [2] was 0.5 nM and the CL (Rattus norvegicus [3]) was 3.3 mL/min/kg. The clearance [4] was 100 mL/min/kg, the clearance [5] was 65 mL/min/kg and the Vd [6] was 16 L/kg. It also gave a Vd [7] of 27 L/kg, a Vd [8] of 18 L/kg and an MRT [9] of 28 h. It also gave an MRT [10] of 2.5 h, an MRT [11] of 10 h and an AUC (Rattus norvegicus [12]) of 4078 ng·h/mL. For the same molecule, the AUC [13] was 268 ng·h/mL, the AUC [14] was 907 ng·h/mL and the F (Rattus norvegicus [15]) was 81%. For the same molecule, the bioavailability [16] was 33%, the bioavailability [17] was 70% and the hepatocyte CLint [18] was < 0.3 µL/min/1e6 cells. The hepatocyte CLint [19] was 8 µL/min/1e6 cells, the hepatocyte CLint [20] was 4.9 µL/min/1e6 cells and the hepatocyte CLint [21] was < 0.3 µL/min/1e6 cells. The IC50 [22] was 4 nM, the Activity (Rattus norvegicus [23]) was 50% and the Activity (Rattus norvegicus [24]) was “Active”. The Activity (Rattus norvegicus [25]) was “Active”, the Activity (Rattus norvegicus [26]) was “Non-toxic” and the Activity [27] was “inactive”. For the same molecule, the IC50 [28] was 4 nM, the Activity (Cynomolgus monkey [29]) was “Active” and the Activity (Rattus norvegicus [30]) was “Non-toxic”. The Activity (Cynomolgus monkey [31]) was “Non-toxic” and the Activity (Cynomolgus monkey [32]) was “Non-toxic”.

C[C@@H]1c2c([nH]c3ccc(C(F)(F)F)cc23)C[C@@H]2CCN(CCN3CCOCC3)C[C@H]21 showed an IC50 [1] of 1000 nM and an IC50 [2] of 750 nM.

For CC1c2c([nH]c3ccc(C(F)(F)F)cc23)CC2CCN(Cc3ccccc3)CC21 (racemic), the IC50 [1] was 580 nM.

Work on CC1c2c([nH]c3c(Cl)cccc23)CC2CCN(C)CC21 (racemic) yielded an IC50 [1] of 1000 nM.

For CC1c2c([nH]c3ccc(C(F)(F)F)cc23)CC2CCN(C)CC21 (racemic), the IC50 [1] was 100 nM.

In the case of CC1c2c([nH]c3ccc(C(F)(F)F)cc23)CC2CCN(C(=O)c3ccccc3)CC21 (racemic), the IC50 [1] is reported as > 20000 nM.

In the case of CC1c2c([nH]c3ccc(C(F)(F)F)cc23)CC2CCN(CCc3ccccc3)CC21 (racemic), the IC50 [1] is reported as 180 nM.

Molecule C[C@H]1c2c([nH]c3ccc(C(F)(F)F)cc23)C[C@H]2CCN(CCCCC3CCOCC3)C[C@@H]21 has an IC50 [1] of 50 nM and an IC50 [2] of 4.4 nM.

In the case of C[C@H]1c2c([nH]c3ccc(C(F)(F)F)cc23)C[C@H]2CCN(CCC3CCOCC3)C[C@@H]21, the IC50 [1] is reported as 6 nM and the IC50 [2] is reported as 0.9 nM.

In the case of CC1c2c([nH]c3ccccc23)CC2CCN(C)CC21 (racemic), the IC50 [1] is reported as 1000 nM.

CC1c2c([nH]c3ccc(C(F)(F)F)cc23)CC2CCN(CCN3CCOCC3)CC21 (racemic) gave an IC50 [1] of 20 nM.

In the case of CC1c2c([nH]c3cc(C(F)(F)F)ccc23)CC2CCN(C)CC21 (racemic), the IC50 [1] is reported as 200 nM.

For COc1ccc2[nH]c3c(c2c1)C(C)C1CN(C)CCC1C3 (racemic), the IC50 [1] was 400 nM.

CC1c2c([nH]c3ccc(C(F)(F)F)cc23)CC2CCN(CC3CCCCO3)CC21 (racemic) showed an IC50 [1] of 180 nM.

— ChEMBL document CHEMBL1921706, “Discovery of a novel series of melanin-concentrating hormone receptor 1 antagonists for the treatment of obesity” (Bioorg Med Chem Lett, 2011)
